# Reference: BindingDB's records for doi:10.7270/Q2222S6W (University of Pittsburgh, 2007)
# Counter-ions that a name gives are not always drawn.
# Target: Genome polyprotein (West Nile virus, UniProt P06935)
# Test: West Nile NS2B-NS3 proteinase blockers – biochemical, confirmation, dose response (AID 653)
# Genome polyprotein, sequence (P06935 1371-1501 limits assumed): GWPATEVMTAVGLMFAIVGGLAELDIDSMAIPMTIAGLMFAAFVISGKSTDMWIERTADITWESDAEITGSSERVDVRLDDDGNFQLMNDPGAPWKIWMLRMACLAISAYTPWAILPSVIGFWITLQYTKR
# Genome polyprotein, sequence (P06935 1502-2120 limits assumed): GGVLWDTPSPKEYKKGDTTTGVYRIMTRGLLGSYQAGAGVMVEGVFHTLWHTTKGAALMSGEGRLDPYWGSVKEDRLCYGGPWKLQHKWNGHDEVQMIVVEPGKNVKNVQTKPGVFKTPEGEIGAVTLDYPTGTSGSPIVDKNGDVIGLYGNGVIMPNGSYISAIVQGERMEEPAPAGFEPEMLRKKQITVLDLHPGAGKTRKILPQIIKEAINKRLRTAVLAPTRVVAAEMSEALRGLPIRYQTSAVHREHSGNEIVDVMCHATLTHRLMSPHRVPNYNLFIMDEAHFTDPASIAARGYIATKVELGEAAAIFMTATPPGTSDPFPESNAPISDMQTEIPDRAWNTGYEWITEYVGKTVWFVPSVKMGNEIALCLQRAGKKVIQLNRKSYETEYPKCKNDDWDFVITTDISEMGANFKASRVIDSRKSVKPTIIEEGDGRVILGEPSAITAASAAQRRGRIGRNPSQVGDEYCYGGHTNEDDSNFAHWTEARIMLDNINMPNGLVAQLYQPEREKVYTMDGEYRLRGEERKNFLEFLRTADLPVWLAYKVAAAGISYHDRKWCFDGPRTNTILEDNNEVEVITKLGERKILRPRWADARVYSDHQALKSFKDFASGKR
row,IC50,Structure (SMILES)
1,> 50 µM,"Cc1cnc(NC(=O)C(C)N2C(=O)C3CC=CCC3C2=O)s1 (configuration not stated) [2-(1,3-diketo-3a,4,7,7a-tetrahydroisoindol-2-yl)-N-(5-methylthiazol-2-yl)propionamide]"
2,> 50 µM,"O=C(OCCN1C(=O)c2ccccc2C1=O)c1cc(S(=O)(=O)N2CCOCC2)ccc1F [2-(1,3-dioxoisoindol-2-yl)ethyl 2-fluoro-5-morpholin-4-ylsulfonylbenzoate]"
3,> 50 µM,"COc1ccc(OC)c(C2C(C(N)=O)C(C)=Nc3nc(-c4cccc(Cl)c4)nn32)c1 (configuration not stated) [2-(3-chlorophenyl)-7-(2,5-dimethoxyphenyl)-5-methyl-1,7-dihydro-[1,2,4]triazolo[1,5-a]pyrimidine-6-carboxamide]"
4,> 50 µM,CCc1cccc2c(C#N)cn(CC(=O)NCc3ccco3)c12 [2-(3-cyano-7-ethyl-1-indolyl)-N-(2-furanylmethyl)acetamide]
5,> 50 µM,"Cc1cccn2c(=O)c(/C=N/Cc3ccco3)c(Nc3ccc(Cl)cc3)nc12 [2-(4-chloroanilino)-3-(2-furanylmethyliminomethyl)-9-methyl-4-pyrido[1,2-a]pyrimidinone]"
6,> 50 µM,CCC(=O)N1CCc2cc(Br)cc(S(=O)(=O)CC(=O)OC)c21 [2-(5-bromo-1-propionyl-indolin-7-yl)sulfonylacetic acid methyl ester]
7,> 50 µM,"COC(=O)c1c(NC(=O)C2CC2)sc2c1CCCC2 [2-(cyclopropanecarbonylamino)-4,5,6,7-tetrahydrobenzothiophene-3-carboxylic acid methyl ester]"
8,> 50 µM,"COc1cccc(NC(=O)CSc2nc3nnc(C)c-3c(N)n2-c2cccc(OC)c2)c1 [2-[4-amino-5-(3-methoxyphenyl)-3-methylpyrazolo[3,4-d]pyrimidin-6-yl]sulfanyl-N-(3-methoxyphenyl)acetamide]"
9,> 50 µM,"C=CCn1c(SCC(=O)OC)nc2sc3c(c2c1=O)CCN(C)C3 [2-[(3-allyl-4-keto-7-methyl-6,8-dihydro-5H-pyrido[2,3]thieno[2,4-b]pyrimidin-2-yl)thio]acetic acid methyl ester]"
10,> 50 µM,CCOC(=O)CNC(=O)C(Cc1ccccc1)NS(=O)(=O)c1cccs1 (configuration not stated) [2-[[1-oxo-3-phenyl-2-(thiophen-2-ylsulfonylamino)propyl]amino]acetic acid ethyl ester]
11,34.1 µM,"COc1ccc(NC=C2C(=O)CCCC2=O)cc1 [2-[[(4-methoxyphenyl)amino]methylidene]cyclohexane-1,3-dione]"
12,> 50 µM,CCc1nc(N)c(C#N)c(-c2cccn2C)c1C [2-amino-6-ethyl-5-methyl-4-(1-methylpyrrol-2-yl)pyridine-3-carbonitrile]
13,> 50 µM,CC(C[N+](C)(C)C)OC(N)=O (configuration not stated) [2-aminocarbonyloxypropyl(trimethyl)azanium;chloride]
14,1.26 µM,Nc1cc(OC(=O)c2ccccc2Br)nn1S(=O)(=O)c1ccccc1 [2-bromobenzoic acid (5-amino-1-besyl-pyrazol-3-yl) ester]
15,0.297 µM,COc1ccc(S(=O)(=O)n2nc(OC(=O)c3ccccc3Br)cc2N)cc1 [2-bromobenzoic acid [5-amino-1-(4-methoxyphenyl)sulfonyl-3-pyrazolyl] ester]
16,0.11 µM,COc1ccc(S(=O)(=O)n2nc(OC(=O)c3cccs3)cc2N)cc1 [2-thiophenecarboxylic acid [5-amino-1-(4-methoxyphenyl)sulfonyl-3-pyrazolyl] ester]
17,> 50 µM,CCOC(=O)c1[nH]c2ccccc2c1NC(=O)CC [3-(1-oxopropylamino)-1H-indole-2-carboxylic acid ethyl ester]

row,IC50,Structure (SMILES)
1,> 50 µM,"Brc1cccc(-c2cnc3n2CCCCC3)c1 [3-(3-bromophenyl)-6,7,8,9-tetrahydro-5H-imidaz[1,2-a]azepine;hydrochloride]"
2,> 50 µM,CC(=O)N1CCN(C(=O)c2cccc(S(=O)(=O)Nc3ccc(C)cc3)c2)CC1 [3-(4-acetylpiperazine-1-carbonyl)-N-(4-methylphenyl)benzenesulfonamide]
3,> 50 µM,COc1ccc2[nH]c(C(=O)O)c(CCNC(C)=O)c2c1 [3-[2-(acetylamino)ethyl]-5-methoxy-1H-indole-2-carboxylic acid]
4,> 50 µM,"COc1cccc2cc(-c3csc(CCn4nc(C)cc4C)n3)c(=O)oc12 [3-[2-[2-(3,5-dimethyl-1-pyrazolyl)ethyl]-4-thiazolyl]-8-methoxy-1-benzopyran-2-one]"
5,> 50 µM,O=C(c1cc2ccccc2oc1=O)N1CCN(c2ccc(N3CCOCC3)nn2)CC1 [3-[4-(6-morpholin-4-ylpyridazin-3-yl)piperazin-1-yl]carbonylchromen-2-one]
6,> 50 µM,"CCn1cc(C(=O)Nc2cccc(C(=O)OC)c2)c(=O)c2ccc(C)nc21 [3-[(1-Ethyl-7-methyl-4-oxo-1,4-dihydro-[1,8]naphthyridine-3-carbonyl)-amino]-benzoic acid methyl ester]"
7,> 50 µM,"CC(C)NCc1c(O)c(Br)cc2oc3c(c12)CCCC3 [3-bromanyl-1-[(propan-2-ylamino)methyl]-6,7,8,9-tetrahydrodibenzofuran-2-ol]"
8,> 50 µM,CCOC(=O)N1CCN(C2=CC(=O)OC23CCCCC3)CC1 [4-(2-Oxo-1-oxa-spiro[4.5]dec-3-en-4-yl)-piperazine-1-carboxylic acid ethyl ester]
9,> 50 µM,"COc1ccc(N2CCN(C(=O)c3cn(C)c(=O)c4c3c3ccccc3n4C)CC2)cc1 [4-[4-(4-methoxyphenyl)piperazin-1-yl]carbonyl-2,9-dimethyl-pyrido[3,4-b]indol-1-one]"
10,> 50 µM,NC(=O)c1ccc(-n2nnnc2SCc2ccc(F)cc2)cc1 [4-[5-[(4-fluorobenzyl)thio]tetrazol-1-yl]benzamide]
11,> 50 µM,CCN(CC)CCNC(=O)c1ccc(N)cc1 [4-amino-N-[2-(diethylamino)ethyl]benzamide;hydrochloride]
12,> 50 µM,CCN(CC(=O)NC(C)C)C(=O)CCNC(=O)c1ccc(Cl)cc1 [4-chloranyl-N-[3-[ethyl-[2-oxidanylidene-2-(propan-2-ylamino)ethyl]amino]-3-oxidanylidene-propyl]benzamide]
13,> 50 µM,CCOC(=O)C(CC(=O)O)N1CCCCC1 (configuration not stated) [4-ethoxy-4-keto-3-piperidino-butyric acid]
14,> 50 µM,COc1cc(C)nc(Oc2ccc(OCCOc3ccc(C)cc3)nn2)n1 [4-methoxy-6-methyl-2-[6-[2-(4-methylphenoxy)ethoxy]pyridazin-3-yl]oxy-pyrimidine]
15,> 50 µM,"O=C1NC(=O)C(c2ccccc2)(c2ccccc2)N1 [5,5-DIPHENYLHYDANTOIN SODIUM SALT]"
16,> 50 µM,"CNC(=O)c1nnc(Cc2ccc(F)cc2)o1 [5-(4-fluorobenzyl)-N-methyl-1,3,4-oxadiazole-2-carboxamide]"

# Second part, the compound before the results:
row,Structure (SMILES),IC50
1,OC[C@H]1O[C@@H](n2cnc3c(NC4CCCC4)ncnc32)[C@H](O)[C@@H]1O,> 50 µM
2,COc1ccc(C2=Nn3c(nnc3-c3ccc(OC)cc3)SC2)cc1,> 50 µM
3,Cc1ccc(S(=O)(=O)n2nc(OC(=O)c3cccs3)cc2N)cc1,2.41 µM
4,Nc1cc(OC(=O)c2ccco2)nn1S(=O)(=O)c1ccc(F)cc1,1.65 µM
5,N[C@@H](Cc1ccc(O)c(I)c1)C(=O)O,> 50 µM
6,CCCC(=O)Nc1ccc(NC(=O)C23CC4CC(CC(C4)C2)C3)cn1,> 50 µM
7,COc1ccccc1-n1c(SCC(=O)N2CCOCC2)nc(O)c(Cc2ccccc2)c1=O,> 50 µM
8,CCOC(=O)C1=C[C@]2(CC)CCCN3CCc4c(n1c1ccccc41)[C@@H]32,> 50 µM
9,O=C(O)c1cc(-c2ccc(F)cc2F)ccc1O,> 50 µM
10,"CN1C(=O)N(CN2CCCCC2)C2C1N(C)C(=O)N2CN1CCCCC1 (configuration not stated) [1,6-dimethyl-3,4-bis(1-piperidinylmethyl)-3a,6a-dihydroimidazo[4,5-d]imidazole-2,5-dione]",> 50 µM
11,"Cc1ccc(NC(=O)C2CCN(S(=O)(=O)c3cccc4nonc34)CC2)nc1 [1-(2,1,3-benzoxadiazol-4-ylsulfonyl)-N-(5-methyl-2-pyridinyl)-4-piperidinecarboxamide]",> 50 µM
12,"O=C(c1cccs1)N1CCN(C(=O)c2ccco2)c2ccccc2C1 [1-(2-furoyl)-4-(thien-2-ylcarbonyl)-2,3,4,5-tetrahydro-1H-1,4-benzodiazepine]",> 50 µM
13,CCOC(=O)C1CCN(S(=O)(=O)c2ccc(C(=O)OC)cc2)CC1 [1-(4-Methoxycarbonyl-benzenesulfonyl)-piperidine-4-carboxylic acid ethyl ester],> 50 µM
14,"CCSc1nnc(NC(=O)NCC(F)(F)F)s1 [1-(5-ethylsulfanyl-1,3,4-thiadiazol-2-yl)-3-(2,2,2-trifluoroethyl)urea]",> 50 µM
15,Cc1cc(N2CCC(C(=O)NC3CCCCC3)CC2)nc(-c2ccccc2)n1 [1-(6-Methyl-2-phenyl-pyrimidin-4-yl)-piperidine-4-carboxylic acid cyclohexylamide],> 50 µM
16,CCCCNC(=O)NS(=O)(=O)c1ccc(C)cc1 [1-Butyl-3-(p-methylphenylsulfonyl)urea],> 50 µM
17,"CC(C)c1nnc(NC(=O)c2c(O)n3c4c(cccc4c2=O)CCC3)s1 [1-Hydroxy-3-oxo-6,7-dihydro-3H,5H-pyrido[3,2,1-ij]quinoline-2-carboxylic acid (5-isopropyl-[1,3,4]thiadiazol-2-yl)-amide]",> 50 µM
18,"COc1cccc(CNC(=O)C2CCN(S(=O)(=O)c3ccc4c(c3)CCC(=O)N4)CC2)c1 [1-[(2-keto-3,4-dihydro-1H-quinolin-6-yl)sulfonyl]-N-m-anisyl-isonipecotamide]",> 50 µM
19,CC(CC1(O)C(=O)N(Cc2ccccc2)c2ccccc21)N=O (configuration not stated) [1-benzyl-3-(2-hydroximinopropyl)-3-hydroxy-oxindole],> 50 µM
20,"CC(C)n1c(-c2cccnc2)nc2cnccc21 [1-isopropyl-2-(3-pyridyl)imidazo[4,5-c]pyridine]",> 50 µM
21,Cn1cc(C(=O)NCN2CCCCC2)c2ccccc21 [1-methyl-N-(1-piperidinylmethyl)-3-indolecarboxamide;hydrochloride],> 50 µM
22,OC(CNCCCN1CCCCC1)COc1ccccc1 (configuration not stated) [1-phenoxy-3-(3-piperidin-1-ylpropylamino)propan-2-ol;hydrochloride],> 50 µM
23,"CC1=C(C#N)C(=O)OC(C)(C)C1 [2,2,4-trimethyl-6-oxidanylidene-3H-pyran-5-carbonitrile]",> 50 µM
24,"O=S(=O)(c1ccc(Cl)cc1)N1CN2CCN(C2)C1 [3-(4-Chloro-benzenesulfonyl)-1,3,5-triaza-bicyclo[3.2.1]octane]",> 50 µM
